From the supplement of paper PMC10307832

Key:
Experiment in all cases: relative viability (nuclei count vs DMSO), 5 days (fraction); higher = more cells survive
Zosuquidar + Alpelisib = compound: O[C@@H](COc1cccc2ncccc12)CN1CCN([C@@H]2c3ccccc3[C@@H]3[C@H](c4ccccc42)C3(F)F)CC1 [Zosuquidar] + Cc1nc(NC(=O)N2CCC[C@H]2C(N)=O)sc1-c1ccnc(C(C)(C)C(F)(F)F)c1 [Alpelisib] (partner 2 µM)
In short: (§1)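 Lung cancer cell lines were seeded in 1536-well plates and dosed by pin tool the next day, with either a single drug or a fixed anchor-drug dose combined with five library-drug doses (not always all listed) spaced in √10 steps. Five days later, one step fixed the cells and stained their nuclei (final 0.05% Triton X-100, 1% formaldehyde, 1 ug/ml Hoechst), and nuclei were counted on 4× images. Relative viability is the nuclei count in treated wells divided by the count in vehicle wells, and each value is the median of duplicate plates.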

Zosuquidar + Crizotinib = compound: O[C@@H](COc1cccc2ncccc12)CN1CCN([C@@H]2c3ccccc3[C@@H]3[C@H](c4ccccc42)C3(F)F)CC1 [Zosuquidar] + C[C@@H](Oc1cc(-c2cnn(C3CCNCC3)c2)cnc1N)c1c(Cl)ccc(F)c1Cl [Crizotinib] (partner 1 µM)
In short: as §1

Zosuquidar + Foretinib = compound: O[C@@H](COc1cccc2ncccc12)CN1CCN([C@@H]2c3ccccc3[C@@H]3[C@H](c4ccccc42)C3(F)F)CC1 [Zosuquidar] + COc1cc2c(Oc3ccc(NC(=O)C4(C(=O)Nc5ccc(F)cc5)CC4)cc3F)ccnc2cc1OCCCN1CCOCC1 [Foretinib] (partner 0.25 µM)
In short: as §1

Zosuquidar + OSI-027 = compound: O[C@@H](COc1cccc2ncccc12)CN1CCN([C@@H]2c3ccccc3[C@@H]3[C@H](c4ccccc42)C3(F)F)CC1 [Zosuquidar] + COc1cccc2cc(-c3nc([C@H]4CC[C@H](C(=O)O)CC4)n4ncnc(N)c34)[nH]c12 [OSI-027] (partner 0.5 µM)
In short: as §1

Cell Line: NCI-H3122
- relative viability (Zosuquidar + Alpelisib; first compound 0.01 µM): 0.714
- relative viability (Zosuquidar + Alpelisib; first compound 0.03162 µM): 0.769
- relative viability (Zosuquidar + Alpelisib; first compound 0.1 µM): 0.679
- relative viability (Zosuquidar + Alpelisib; first compound 0.3162 µM): 0.764
- relative viability (Zosuquidar + Alpelisib; first compound 1 µM): 0.763
- relative viability (Zosuquidar + Crizotinib; first compound 0.01 µM): 0.271
- relative viability (Zosuquidar + Crizotinib; first compound 0.03162 µM): 0.274
- relative viability (Zosuquidar + Crizotinib; first compound 0.1 µM): 0.24
- relative viability (Zosuquidar + Crizotinib; first compound 0.3162 µM): 0.275
- relative viability (Zosuquidar + Crizotinib; first compound 1 µM): 0.252
- relative viability (Zosuquidar + Foretinib; first compound 0.01 µM): 0.891
- relative viability (Zosuquidar + Foretinib; first compound 0.03162 µM): 0.922
- relative viability (Zosuquidar + Foretinib; first compound 0.1 µM): 0.909
- relative viability (Zosuquidar + Foretinib; first compound 0.3162 µM): 0.934
- relative viability (Zosuquidar + Foretinib; first compound 1 µM): 0.955
- relative viability (Zosuquidar + OSI-027; first compound 0.01 µM): 0.921
- relative viability (Zosuquidar + OSI-027; first compound 0.03162 µM): 1.03
- relative viability (Zosuquidar + OSI-027; first compound 0.3162 µM): 1.36
- relative viability (Zosuquidar + OSI-027; first compound 1 µM): 0.936

Cell Line: PC-3 [JPC-3]
- relative viability (Zosuquidar + Alpelisib; first compound 0.01 µM): 0.986
- relative viability (Zosuquidar + Alpelisib; first compound 0.03162 µM): 1
- relative viability (Zosuquidar + Alpelisib; first compound 0.1 µM): 0.91
- relative viability (Zosuquidar + Alpelisib; first compound 0.3162 µM): 1.03
- relative viability (Zosuquidar + Alpelisib; first compound 1 µM): 0.994
- relative viability (Zosuquidar + Crizotinib; first compound 0.01 µM): 0.861
- relative viability (Zosuquidar + Crizotinib; first compound 0.03162 µM): 0.981
- relative viability (Zosuquidar + Crizotinib; first compound 0.1 µM): 0.878
- relative viability (Zosuquidar + Crizotinib; first compound 0.3162 µM): 0.964
- relative viability (Zosuquidar + Crizotinib; first compound 1 µM): 0.946
- relative viability (Zosuquidar + Foretinib; first compound 0.01 µM): 1.11
- relative viability (Zosuquidar + Foretinib; first compound 0.03162 µM): 1.02
- relative viability (Zosuquidar + Foretinib; first compound 0.1 µM): 0.984
- relative viability (Zosuquidar + Foretinib; first compound 0.3162 µM): 1.09
- relative viability (Zosuquidar + Foretinib; first compound 1 µM): 1.1
- relative viability (Zosuquidar + OSI-027; first compound 0.01 µM): 0.738
- relative viability (Zosuquidar + OSI-027; first compound 0.03162 µM): 0.787
- relative viability (Zosuquidar + OSI-027; first compound 0.1 µM): 0.562
- relative viability (Zosuquidar + OSI-027; first compound 0.3162 µM): 0.789
- relative viability (Zosuquidar + OSI-027; first compound 1 µM): 0.796

Cell Line: PC-14
- relative viability (Zosuquidar + Alpelisib; first compound 0.01 µM): 0.916
- relative viability (Zosuquidar + Alpelisib; first compound 0.03162 µM): 1.05
- relative viability (Zosuquidar + Alpelisib; first compound 0.1 µM): 0.864
- relative viability (Zosuquidar + Alpelisib; first compound 0.3162 µM): 0.944
- relative viability (Zosuquidar + Alpelisib; first compound 1 µM): 0.923
- relative viability (Zosuquidar + Crizotinib; first compound 0.01 µM): 0.837
- relative viability (Zosuquidar + Crizotinib; first compound 0.03162 µM): 1.02
- relative viability (Zosuquidar + Crizotinib; first compound 0.1 µM): 0.801
- relative viability (Zosuquidar + Crizotinib; first compound 0.3162 µM): 0.938
- relative viability (Zosuquidar + Crizotinib; first compound 1 µM): 0.759
- relative viability (Zosuquidar + Foretinib; first compound 0.01 µM): 0.99
- relative viability (Zosuquidar + Foretinib; first compound 0.03162 µM): 0.983
- relative viability (Zosuquidar + Foretinib; first compound 0.1 µM): 0.952
- relative viability (Zosuquidar + Foretinib; first compound 0.3162 µM): 0.997
- relative viability (Zosuquidar + Foretinib; first compound 1 µM): 0.952
- relative viability (Zosuquidar + OSI-027; first compound 0.01 µM): 0.903
- relative viability (Zosuquidar + OSI-027; first compound 0.03162 µM): 0.714
- relative viability (Zosuquidar + OSI-027; first compound 0.1 µM): 0.826
- relative viability (Zosuquidar + OSI-027; first compound 0.3162 µM): 1.02
- relative viability (Zosuquidar + OSI-027; first compound 1 µM): 0.78

Cell Line: RERF-LC-KJ
- relative viability (Zosuquidar + Alpelisib; first compound 0.01 µM): 0.809
- relative viability (Zosuquidar + Alpelisib; first compound 0.03162 µM): 0.913
- relative viability (Zosuquidar + Alpelisib; first compound 0.1 µM): 0.745
- relative viability (Zosuquidar + Alpelisib; first compound 0.3162 µM): 0.887
- relative viability (Zosuquidar + Alpelisib; first compound 1 µM): 0.874
- relative viability (Zosuquidar + Crizotinib; first compound 0.01 µM): 0.81
- relative viability (Zosuquidar + Crizotinib; first compound 0.03162 µM): 0.799
- relative viability (Zosuquidar + Crizotinib; first compound 0.1 µM): 0.824
- relative viability (Zosuquidar + Crizotinib; first compound 0.3162 µM): 0.873
- relative viability (Zosuquidar + Crizotinib; first compound 1 µM): 0.806
- relative viability (Zosuquidar + Foretinib; first compound 0.01 µM): 0.895
- relative viability (Zosuquidar + Foretinib; first compound 0.03162 µM): 0.926
- relative viability (Zosuquidar + Foretinib; first compound 0.1 µM): 0.861
- relative viability (Zosuquidar + Foretinib; first compound 0.3162 µM): 0.923
- relative viability (Zosuquidar + Foretinib; first compound 1 µM): 0.844
- relative viability (Zosuquidar + OSI-027; first compound 0.01 µM): 0.543
- relative viability (Zosuquidar + OSI-027; first compound 0.03162 µM): 0.565
- relative viability (Zosuquidar + OSI-027; first compound 0.1 µM): 0.634
- relative viability (Zosuquidar + OSI-027; first compound 0.3162 µM): 0.691
- relative viability (Zosuquidar + OSI-027; first compound 1 µM): 0.623

Cell Line: SK-LU-1
- relative viability (Zosuquidar + Alpelisib; first compound 0.01 µM): 0.954
- relative viability (Zosuquidar + Alpelisib; first compound 0.03162 µM): 1.04
- relative viability (Zosuquidar + Alpelisib; first compound 0.1 µM): 1.17
- relative viability (Zosuquidar + Alpelisib; first compound 0.3162 µM): 1.26
- relative viability (Zosuquidar + Alpelisib; first compound 1 µM): 0.895
- relative viability (Zosuquidar + Crizotinib; first compound 0.01 µM): 0.974
- relative viability (Zosuquidar + Crizotinib; first compound 0.03162 µM): 0.981
- relative viability (Zosuquidar + Crizotinib; first compound 0.1 µM): 1.1
- relative viability (Zosuquidar + Crizotinib; first compound 0.3162 µM): 0.932
- relative viability (Zosuquidar + Crizotinib; first compound 1 µM): 0.911
- relative viability (Zosuquidar + Foretinib; first compound 0.01 µM): 0.799
- relative viability (Zosuquidar + Foretinib; first compound 0.03162 µM): 0.871
- relative viability (Zosuquidar + Foretinib; first compound 0.1 µM): 0.937
- relative viability (Zosuquidar + Foretinib; first compound 0.3162 µM): 0.961
- relative viability (Zosuquidar + Foretinib; first compound 1 µM): 0.77
- relative viability (Zosuquidar + OSI-027; first compound 0.01 µM): 0.369
- relative viability (Zosuquidar + OSI-027; first compound 0.03162 µM): 0.35
- relative viability (Zosuquidar + OSI-027; first compound 0.1 µM): 0.401
- relative viability (Zosuquidar + OSI-027; first compound 0.3162 µM): 0.432
- relative viability (Zosuquidar + OSI-027; first compound 1 µM): 0.33

Cell Line: SK-MES-1
- relative viability (Zosuquidar + Alpelisib; first compound 0.01 µM): 0.876
- relative viability (Zosuquidar + Alpelisib; first compound 0.03162 µM): 0.95
- relative viability (Zosuquidar + Alpelisib; first compound 0.1 µM): 0.692
- relative viability (Zosuquidar + Alpelisib; first compound 0.3162 µM): 1.07
- relative viability (Zosuquidar + Alpelisib; first compound 1 µM): 0.987
- relative viability (Zosuquidar + Crizotinib; first compound 0.01 µM): 0.977
- relative viability (Zosuquidar + Crizotinib; first compound 0.03162 µM): 0.99
- relative viability (Zosuquidar + Crizotinib; first compound 0.1 µM): 0.955
- relative viability (Zosuquidar + Crizotinib; first compound 0.3162 µM): 1.03
- relative viability (Zosuquidar + Crizotinib; first compound 1 µM): 1.02
- relative viability (Zosuquidar + Foretinib; first compound 0.01 µM): 0.891
- relative viability (Zosuquidar + Foretinib; first compound 0.03162 µM): 0.872
- relative viability (Zosuquidar + Foretinib; first compound 0.1 µM): 0.879
- relative viability (Zosuquidar + Foretinib; first compound 0.3162 µM): 1.05
- relative viability (Zosuquidar + Foretinib; first compound 1 µM): 0.94
- relative viability (Zosuquidar + OSI-027; first compound 0.01 µM): 0.639
- relative viability (Zosuquidar + OSI-027; first compound 0.03162 µM): 0.665
- relative viability (Zosuquidar + OSI-027; first compound 0.1 µM): 0.549
- relative viability (Zosuquidar + OSI-027; first compound 0.3162 µM): 0.638
- relative viability (Zosuquidar + OSI-027; first compound 1 µM): 0.652

Cell Line: SW 1573
- relative viability (Zosuquidar + Alpelisib; first compound 0.01 µM): 0.721
- relative viability (Zosuquidar + Alpelisib; first compound 0.03162 µM): 0.739
- relative viability (Zosuquidar + Alpelisib; first compound 0.1 µM): 0.651
- relative viability (Zosuquidar + Alpelisib; first compound 0.3162 µM): 0.89
- relative viability (Zosuquidar + Alpelisib; first compound 1 µM): 0.8
- relative viability (Zosuquidar + Crizotinib; first compound 0.01 µM): 0.873
- relative viability (Zosuquidar + Crizotinib; first compound 0.03162 µM): 0.728
- relative viability (Zosuquidar + Crizotinib; first compound 0.1 µM): 0.791
- relative viability (Zosuquidar + Crizotinib; first compound 0.3162 µM): 0.775
- relative viability (Zosuquidar + Crizotinib; first compound 1 µM): 0.833
- relative viability (Zosuquidar + Foretinib; first compound 0.01 µM): 0.976
- relative viability (Zosuquidar + Foretinib; first compound 0.03162 µM): 0.888
- relative viability (Zosuquidar + Foretinib; first compound 0.1 µM): 1.07
- relative viability (Zosuquidar + Foretinib; first compound 0.3162 µM): 1.05
- relative viability (Zosuquidar + Foretinib; first compound 1 µM): 0.879
- relative viability (Zosuquidar + OSI-027; first compound 0.01 µM): 0.624
- relative viability (Zosuquidar + OSI-027; first compound 0.03162 µM): 0.609
- relative viability (Zosuquidar + OSI-027; first compound 0.1 µM): 0.81
- relative viability (Zosuquidar + OSI-027; first compound 0.3162 µM): 1
- relative viability (Zosuquidar + OSI-027; first compound 1 µM): 0.689
